Data: patent publication US8674109B2, “Pesticidal compositions” (Dow AgroSciences, LLC., priority 2009, dated 2014)

Columns and labels:
Assay type in all cases: in vivo
[1] = system: beet armyworm (BAW; Spodoptera exigua: Lepidoptera); test: Insecticidal test for beet armyworm, 128-well diet tray assay
In short: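 Three to five second-instar larvae per well fed on artificial diet surface-treated with 50 μg/cm^2 compound (applied in 90:10 acetone-water, dried). Trays were held six days at 25 °C, 14:10 light-dark. Percent mortality was averaged across eight wells.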

[2] = system: green peach aphid (Myzus persicae); test: Insecticidal test for green peach aphid in foliar spray assay on cabbage seedlings
In short: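 Cabbage seedlings carrying 20-50 aphids (adults and nymphs) were sprayed to runoff with compound at 200 ppm in acetone/methanol diluted in 0.025% Tween 20, with four pots per treatment. After three days at about 25 °C and 40% RH, live aphids were counted. Percent control was Abbott-corrected against solvent-check plants.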

[3] = system: corn earworm (CEW; Helicoverpa zea: Lepidoptera); test: Insecticidal test for corn earworm, 128-well diet tray assay
In short: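 Second-instar larvae, three to five per well, placed on artificial diet treated with 50 μg/cm^2 compound applied in 90:10 acetone-water and dried. Held six days at 25° C., 14:10 light-dark. Percent mortality scored per well and averaged over eight wells.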

| SMILES | % Mortality BAW 50 μg/cm^2 [1] | % Mortality GPA 200 ppm [2] | % Mortality CEW 50 μg/cm^2 [3] |
| --- | --- | --- | --- |
| Cc1cccc(C)c1C(C)OC(=O)Nc1ccc(-c2ncn(-c3ccc(OC(F)(F)F)cc3)n2)cc1 (stereo not drawn) [Compound 89] | A (50-100) | B (Less than 80) | A (50-100) |
| Cc1ccc(OC(=O)Nc2ccc(-c3ncn(-c4ccc(OC(F)(F)F)cc4)n3)cc2)cn1 [Compound 123] | B (Less than 50) | B (Less than 80) | B (Less than 50) |
| CC(OC(=O)Nc1ccc(-c2ncn(-c3ccc(OC(F)(F)F)cc3)n2)cc1)c1ccc(C(F)(F)F)cc1C(F)(F)F (stereo not drawn) [Compound 115] | B (Less than 50) | B (Less than 80) | B (Less than 50) |
| COCC(C)(C)OC(=O)Nc1ccc(-c2ncn(-c3ccc(OC(F)(F)F)cc3)n2)cc1 [Compound 5] | A (50-100) | B (Less than 80) | A (50-100) |
| O=C(Nc1ccc(-c2ncn(-c3ccc(OC(F)(F)F)cc3)n2)cc1)OCc1ccccc1 [Compound 105] | A (50-100) | B (Less than 80) | A (50-100) |
| O=C(Nc1ccc(-c2ncn(-c3ccc(OC(F)(F)F)cc3)n2)cc1)OC(c1ccccc1)c1ccc(C(F)(F)F)cc1 (stereo not drawn) [Compound 43] | A (50-100) | B (Less than 80) | A (50-100) |
| CN(C(=O)Oc1ccc([N+](=O)[O-])cc1)c1ccc(-c2ncn(-c3ccc(OC(F)(F)F)cc3)n2)cc1 [Compound 136, methyl-{4-[1-(4-trifluoromethoxyphenyl)-1H-[1,2,4]triazol-3-yl]-phenyl}-carbamic acid 4-nitrophenyl ester] | B (Less than 50) | B (Less than 80) | B (Less than 50) |
| CCOC(=O)Nc1ccc(-c2ncn(-c3ccc(OC(F)(F)F)cc3)n2)cc1 [Compound 98] | A (50-100) | B (Less than 80) | A (50-100) |
| O=C(Nc1ccc(-c2ncn(-c3ccc(OC(F)(F)F)cc3)n2)cc1)OC1CCc2ccccc21 (stereo not drawn) [Compound 109] | B (Less than 50) | B (Less than 80) | A (50-100) |
| CC(OC(=O)Nc1ccc(-c2ncn(-c3ccc(OC(F)(F)F)cc3)n2)cc1)c1ccsc1 (stereo not drawn) [Compound 77] | A (50-100) | B (Less than 80) | A (50-100) |
| O=C(Nc1ccc(-c2ncn(-c3ccc(OC(F)(F)F)cc3)n2)cc1)OCc1ccc(C(F)(F)F)cc1 [Compound 50] | B (Less than 50) | B (Less than 80) | B (Less than 50) |
| CC(OC(=O)Nc1ccc(-c2ncn(-c3ccc(OC(F)(F)F)cc3)n2)cc1)c1c(Cl)cccc1Cl (stereo not drawn) [Compound 73] | A (50-100) | B (Less than 80) | A (50-100) |
| CC(OC(=O)Nc1ccc(-c2ncn(-c3ccc(OC(F)(F)F)cc3)n2)cc1)c1ccc(Cl)nc1 (stereo not drawn) [Compound 56] | A (50-100) | B (Less than 80) | A (50-100) |
| CC(OC(=O)Nc1ccc(-c2ncn(-c3ccc(OC(F)(F)F)cc3)n2)cc1)c1ccc(I)cc1 (stereo not drawn) [Compound 35] | A (50-100) | B (Less than 80) | A (50-100) |
| COc1ccc(C(C)OC(=O)Nc2ccc(-c3ncn(-c4ccc(OC(F)(F)F)cc4)n3)cc2)nc1 (stereo not drawn) [Compound 119] | A (50-100) | B (Less than 80) | A (50-100) |
| C#CC(OC(=O)Nc1ccc(-c2ncn(-c3ccc(C(F)(F)F)cc3)n2)cc1)c1ccc(C(F)(F)F)cc1 (stereo not drawn) [Compound 29] | A (50-100) | B (Less than 80) | A (50-100) |
| CC(OC(=O)Nc1ccc(-c2ncn(-c3ccc(OC(F)(F)F)cc3)n2)cc1)c1cccc(C(F)(F)F)c1 (stereo not drawn) [Compound 68] | A (50-100) | B (Less than 80) | A (50-100) |
| C#CC(OC(=O)Nc1ccc(-c2ncn(-c3ccc(OC(F)(F)F)cc3)n2)cc1)c1ccc(C(F)(F)F)nc1 (stereo not drawn) [Compound 53] | A (50-100) | B (Less than 80) | A (50-100) |
| O=C(Nc1ccc(-c2ncn(-c3ccc(OC(F)(F)F)cc3)n2)cc1)OC(c1ccoc1)C(F)(F)F (stereo not drawn) [Compound 80] | A (50-100) | B (Less than 80) | A (50-100) |
| CCC(OC(=O)Nc1ccc(-c2ncn(-c3ccc(OC(F)(F)C(F)(F)F)cc3)n2)cc1)c1ccccc1 (stereo not drawn) [Compound 34] | A (50-100) | B (Less than 80) | A (50-100) |
| COC(=O)Nc1ccc(-c2ncn(-c3ccc(OC(F)(F)F)cc3)n2)cc1 [Compound 104] | A (50-100) | B (Less than 80) | A (50-100) |
| C#CC(OC(=O)Nc1ccc(-c2ncn(-c3ccc(OC(F)(F)F)cc3)n2)cc1)c1ccc(Cl)nc1 (stereo not drawn) [Compound 52] | A (50-100) | B (Less than 80) | A (50-100) |
| CC(OC(=O)Nc1ccc(-c2ncn(-c3ccc(OC(F)(F)C(F)(F)F)cc3)n2)cc1)c1ccc(C(F)(F)F)nc1 (stereo not drawn) [Compound 33] | A (50-100) | B (Less than 80) | A (50-100) |
| CC#CC(OC(=O)Nc1ccc(-c2ncn(-c3ccc(OC(F)(F)F)cc3)n2)cc1)c1ccccc1 (stereo not drawn) [Compound 72] | A (50-100) | B (Less than 80) | A (50-100) |
| CC(OC(=O)Nc1ccc(-c2ncn(-c3ccc(OC(F)(F)F)cc3)n2)cc1)c1cccnc1 (stereo not drawn) [Compound 110] | A (50-100) | B (Less than 80) | A (50-100) |
| CC(C)(OC(=O)Nc1ccc(-c2ncn(-c3ccc(OC(F)(F)F)cc3)n2)cc1)c1ccc(C(F)(F)F)cc1 [Compound 49] | A (50-100) | B (Less than 80) | A (50-100) |
| CC(OC(=O)Nc1ccc(-c2ncn(-c3ccc(OC(F)(F)F)cc3)n2)cc1)c1ccc(F)cn1 (stereo not drawn) [Compound 117] | A (50-100) | B (Less than 80) | A (50-100) |
| CCC(OC(=O)Nc1ccc(-c2ncn(-c3ccc(C(F)(F)F)cc3)n2)cc1)c1ccccc1 (stereo not drawn) [Compound 30] | A (50-100) | B (Less than 80) | A (50-100) |
| COCCOCC(C)(C)OC(=O)Nc1ccc(-c2ncn(-c3ccc(OC(F)(F)F)cc3)n2)cc1 [Compound 18] | A (50-100) | B (Less than 80) | A (50-100) |
